Structures can show the parent of a compound that is named as a salt.
| SMILES | melting point [°C] |
| --- | --- |
| CC(C)[C@H](N)C(=O)O[C@@H]1[C@@H](CO[P@@]2(=O)OCC[C@@H](c3cccc(Cl)c3)O2)O[C@@H](n2cnc3c(O)nc(N)nc32)[C@]1(C)O (as salt: trifluoroacetate) [Compound 118, 2(R)-(2-Amino-6-hydroxy-9 (H)-purinyl)-5(R)-(4(S)-(3-chlorophenyl)-2-oxo-1,3,2-dioxaphosphorinan-2(R)-yloxymethyl)-3(R)-hydroxy-3(R)-methyl-4(R)-L-valinyl-tetrahydrofuran] | > 210 |
| C[C@@]12OC(=O)O[C@@H]1[C@@H](CO[P@@]1(=O)OCC[C@@H](c3cccc(Cl)c3)O1)O[C@H]2n1cnc2c(OC3CCCC3)nc(N)nc21 [Compound 125, 2(R)-(2-Amino-6-cyclopentyloxy-9(H)-purinyl)-4(R)-(4(S)-(3-chlorophenyl)-2-oxo-1,3,2-dioxaphosphorinan-2(R)-yloxymethyl)-1(R)-methyl-7-oxo-3,6,8-trioxa-cis-bicyclo[3.3.0]octane] | 107 to 109 |
| CCOc1nc(N)nc2c1ncn2[C@@H]1O[C@H](CO[P@@]2(=O)OCC[C@@H](c3cccc(Cl)c3)O2)[C@@H](OC(=O)C2CCCC2)[C@@]1(C)O [Compound 186, 2(R)-(2-Amino-6-ethoxy-9(H)-purinyl)-5(R)-(4(S)-(3-chlorophenyl)-2-oxo-1,3,2-dioxaphosphorinan-2(R)-yloxymethyl)-3(R)-hydroxy-3(R)-methyl-4(R)-cyclopentylcarboxy-tetrahydrofuran] | 106 to 111 |
| CCOc1nc(N)nc2c1ncn2[C@@H]1O[C@H](CO[P@@]2(=O)OCC[C@@H](c3cccc(Cl)c3)O2)[C@@H](OC(=O)C(C)C)[C@@]1(C)O (as salt: trifluoroacetate) [Compound 185, 2(R)-(2-Amino-6-ethoxy-9(H)-purinyl)-5(R)-(4(S)-(3-chlorophenyl)-2-oxo-1,3,2-dioxaphosphorinan-2(R)-yloxymethyl)-3(R)-hydroxy-3(R)-methyl-4(R)-isobutyryloxy-tetrahydrofuran] | 162 to 165 |

Continued, values first:

| melting point [°C] | SMILES |
| --- | --- |
| 118 to 122 | CC(C)COc1nc(N)nc2c1ncn2[C@@H]1O[C@H](CO[P@@]2(=O)OCC[C@@H](c3cccc(Cl)c3)O2)[C@H]2OC(=O)O[C@]21C [Compound 122, 2(R)-(2-Amino-6-(2-methylpropyloxy)-9(H)-purinyl)-4(R)-(4(S)-(3-chlorophenyl)-2-oxo-1,3,2-dioxaphosphorinan-2(R)-yloxymethyl)-1(R)-methyl-7-oxo-3,6,8-trioxa-cis-bicyclo[3.3.0]octane] |
| 106 to 110 | CC(C)Oc1nc(N)nc2c1ncn2[C@@H]1O[C@H](CO[P@@]2(=O)OCC[C@@H](c3cccc(Cl)c3)O2)[C@H]2OC(=O)O[C@]21C [Compound 151, 2(R)-(2-Amino-6-isopropyloxy-9(H)-purinyl)-4(R)-(4(S)-(3-chlorophenyl)-2-oxo-1,3,2-dioxaphosphorinan-2(R)-yloxymethyl)-1(R)-methyl-7-oxo-3,6,8-trioxa-cis-bicyclo[3.3.0]octane] |
| > 200 | C[C@@]12OC(=O)O[C@@H]1[C@@H](CO[P@@]1(=O)OCC[C@@H](c3cccc(Cl)c3)O1)O[C@H]2n1cnc2c(O)nc(N)nc21 [Compound 106, 2(R)-(2-Amino-6-hydroxy-9 (H)-purinyl)-4(R)-(4(S)-(3-chlorophenyl)-2-oxo-1,3,2-dioxaphosphorinan-2(R)-yloxymethyl)-1(R)-methyl-7-oxo-3,6,8-trioxa-cis-bicyclo[3.3.0]octane] |
| 88 to 90 | CC1CC1COc1nc(N)nc2c1ncn2[C@@H]1O[C@H](CO[P@@]2(=O)OCC[C@@H](c3cccc(Cl)c3)O2)[C@H]2OC(=O)O[C@]21C (stereo partly drawn) [Compound 135, 2(R)-(2-Amino-6-(2-methylcyclopropylmethoxy)-9(H)-purinyl)-4(R)-(4(S)-(3-chlorophenyl)-2-oxo-1,3,2-dioxaphosphorinan-2(R)-yloxymethyl)-1(R)-methyl-7-oxo-3,6,8-trioxa-cis-bicyclo[3.3.0]octane] |
